# Source: publication PMC10377574, “Preclinical Characterization of a Stabilized Gastrin-Releasing Peptide Receptor Antagonist for Targeted Cancer Theranostics” (Biomolecules, 2023)
# Assays:
# [1] = tested on: PC-3 tumors (GRPR-positive); experiment: Biodistribution in mice bearing PC-3 tumors; settings: 1 h pi, n = 4
# Description: (§1) Biodistribution was conducted in Balb/c nu/nu mice (Scanbur A/S, Stockholm, Sweden), implanted subcutaneously in their flanks with PC-3 cells (6 × 10^6 cells/mouse) 3–4 weeks before the study. […] Biodistributions were conducted at 1 h pi for both control groups.
# [2] = Biodistribution in mice bearing PC-3 tumors; settings: Balb/c nu/nu, mouse, iv, total radioactivity, n = 4; for tissue uptake at 1 h: 1 h pi; for tissue uptake at 4 h: 4 h pi; for tissue uptake at 24 h: 24 h pi
# Description: as §1
# [3] = In vivo metabolic stability in peripheral mice blood, HPLC; settings: 5 min pi
# Description: (§2) Pills were ground to a fine powder in a mortar, divided, and suspended in tab water to individual 12 mg/200 mL doses of pill per animal administered per os (Entresto® group) [35].
# (§3) The in vivo stability was determined in healthy male Swiss albino mice (12 mice in total, body weights 30 ± 5 g). Briefly, each radiolabeled peptide was injected as a bolus (100 μL, 11–22 MBq, 3 nmol of total peptide in saline/EtOH 9/1 v/v) in the tail vein of mice either untreated (controls) or 20 min after having received per os a slurry of an Entresto® pill (individual 12 mg/200 mL doses of pill per animal; Entresto®-group; Novartis, Basel, Switzerland), as previously described [34, 35]. Blood was collected 5 min post-injection (pi) in a chilled syringe directly from the heart (0.5–1 mL) and samples were processed prior to being analyzed by HPLC for the detection of forming radiometabolites, as previously described [25, 35]. For analyses, an XBridge Shield RP18 (5 μm, 4.6 mm × 20 mm) column (Waters, Vienna, Austria) was eluted at a flow rate of 1 mL/min with 0.1% TFA in H2O (A) and MeCN (B) with the following linear gradient system: 100%A/0%B at 0 min, with B linearly increasing by 1%/min to 60%A/40%B (system 2).
# [4] = Radiometal complex stability (PBS, EDTA challenge, human serum), ITLC; settings: 1 h at 37 °C, n = 3
# Description: The radiochemical stability to transchelation was assessed by incubation of the radiolabeled peptide either with 1000× molar excess of EDTA or by incubation in human serum for 1 h at 37 °C. Incubation of radiolabeled peptide in PBS was used as control. The leakage of radiometal from the radiometal-chelate was determined with ITLC.
# [5] = Biodistribution in negative control mice bearing DU-145 tumors; type: in vivo; settings: Balb/c nu/nu, mouse, iv, 40 pmol, total radioactivity, 1 h pi, n = 4
# Description: as §1
# [6] = mouse, in vivo
# Description: as §2, §3
# in vivo = settings: Balb/c nu/nu, mouse, iv, 40 pmol, total radioactivity
# Description: as §1
# [7] = PC-3 tumor, 40 pmol, Tumor (PC-3) uptake
# [8] = kidneys, 40 pmol, Kidneys uptake
# [9] = pancreas, 40 pmol, Pancreas uptake
# [10] = small intestine, 40 pmol, Small intestine uptake
structure (smiles),measurement,setting,value
"CC(C)C[C@H](NC(=O)C[C@H](O)[C@H](CC(C)C)NC(=O)[C@H](Cc1c[nH]cn1)NC(=O)CN(C)C(=O)[C@@H](NC(=O)[C@H](C)NC(=O)[C@H](Cc1c[nH]c2ccccc12)NC(=O)[C@H](CCC(N)=O)NC(=O)[C@@H](Cc1ccccc1)NC(=O)COCCOCCNC(=O)CCC(C(=O)O)N1CCN(CC(=O)O)CCN(CC(=O)O)CCN(CC(=O)O)CC1)C(C)C)C(N)=O (mixture of isomers) [[^111In]In-AU-RM26-M1, [^111In]In-DOTAGA-PEG2-(Sar^11)RM26, metal not drawn]",Pancreas uptake,[1],2.23 ± 0.56 %IA/g
same,tissue uptake at 1 h,[2]; [7],7 ± 0.7 %ID/g
same,tissue uptake at 4 h,[2]; [7],5.7 ± 1.8 %ID/g
same,tissue uptake at 24 h,[2]; [7],1.8 ± 0.6 %ID/g
same,tissue uptake at 1 h,"[2]; PC-3 tumor, with unlabeled NOTA-PEG2-RM26, 5 nmol (in vivo GRPR blocking), PC-3 tumor uptake, GRPR-blocking group, excess unlabeled NOTA-PEG2-RM26 (5 nmol)",0.9 ± 0.6 %ID/g
same,tissue uptake at 1 h,"[2]; blood, 40 pmol, Blood uptake",0.6 ± 0.1 %ID/g
same,tissue uptake at 4 h,"[2]; blood, 40 pmol, Blood uptake",0.11 ± 0.07 %ID/g
same,tissue uptake at 24 h,"[2]; blood, 40 pmol, Blood uptake",0.02 ± 0.01 %ID/g
same,tissue uptake at 1 h,"[2]; bone, 40 pmol, Bone uptake",0.17 ± 0.09 %ID/g
same,tissue uptake at 4 h,"[2]; bone, 40 pmol, Bone uptake",0.09 ± 0.03 %ID/g
same,tissue uptake at 24 h,"[2]; bone, 40 pmol, Bone uptake",0.06 ± 0.03 %ID/g
same,tissue uptake at 1 h,[2]; [8],7.2 ± 0.9 %ID/g
same,tissue uptake at 4 h,[2]; [8],6 ± 1 %ID/g
same,tissue uptake at 24 h,[2]; [8],3 ± 0.9 %ID/g
same,tissue uptake at 1 h,"[2]; liver, 40 pmol, Liver uptake",0.55 ± 0.04 %ID/g
same,tissue uptake at 4 h,"[2]; liver, 40 pmol, Liver uptake",0.24 ± 0.02 %ID/g
same,tissue uptake at 24 h,"[2]; liver, 40 pmol, Liver uptake",0.1 ± 0.03 %ID/g
same,tissue uptake at 1 h,"[2]; lungs, 40 pmol, Lungs uptake",0.46 ± 0.09 %ID/g
same,tissue uptake at 4 h,"[2]; lungs, 40 pmol, Lungs uptake",0.17 ± 0.06 %ID/g
same,tissue uptake at 24 h,"[2]; lungs, 40 pmol, Lungs uptake",0.03 ± 0.03 %ID/g
same,tissue uptake at 1 h,"[2]; muscle, 40 pmol, Muscle uptake",0.15 ± 0.08 %ID/g
same,tissue uptake at 4 h,"[2]; muscle, 40 pmol, Muscle uptake",0.13 ± 0.05 %ID/g
same,tissue uptake at 24 h,"[2]; muscle, 40 pmol, Muscle uptake",0.01 ± 0.01 %ID/g
same,tissue uptake at 1 h,[2]; [9],2.2 ± 0.6 %ID/g
same,tissue uptake at 4 h,[2]; [9],0.29 ± 0.02 %ID/g
same,tissue uptake at 24 h,[2]; [9],0.03 ± 0.01 %ID/g
same,tissue uptake at 1 h,"[2]; pancreas, with unlabeled NOTA-PEG2-RM26, 5 nmol (in vivo GRPR blocking), pancreas uptake, blocked group, excess unlabeled NOTA-PEG2-RM26 (5 nmol)",0.3 ± 0.2 %ID/g
same,tissue uptake at 1 h,[2]; [10],1.1 ± 0.6 %ID/g
same,tissue uptake at 4 h,[2]; [10],0.3 ± 0.2 %ID/g
same,tissue uptake at 24 h,[2]; [10],0.03 ± 0.01 %ID/g
same,tissue uptake at 1 h,"[2]; spleen, 40 pmol, Spleen uptake",0.3 ± 0.2 %ID/g
same,tissue uptake at 4 h,"[2]; spleen, 40 pmol, Spleen uptake",0.22 ± 0.07 %ID/g
same,tissue uptake at 24 h,"[2]; spleen, 40 pmol, Spleen uptake",0.1 ± 0.03 %ID/g
same,% intact radioligand in peripheral mice blood,"[3]; Entresto-treated group (NEP inhibition, per os)",91 ± 2%
same,% intact radioligand in peripheral mice blood,[3]; control (untreated) mice,88 ± 8%
same,"Radiochemical stability, % protein-associated activity, EDTA",[4]; 1000× molar excess of EDTA,98.7 ± 0.3%
same,"Radiochemical stability, % protein-associated activity, PBS",[4]; PBS control,100.0 ± 0.3%
same,"Radiochemical stability, % protein-associated activity, Serum",[4]; human serum,99.2 ± 0.3%
same,tissue uptake at 1 h,"[5]; DU-145 tumor, read-out: uptake in DU-145 tumors (GRPR-negative)",0.9 ± 0.2 %ID/g
same,tissue uptake at 1 h,"[5]; pancreas, DU-145 tumor-bearing mice, read-out: pancreas uptake, negative control group",2.2 ± 0.7 %ID/g
"CC(C)C[C@H](NC(=O)C[C@H](O)[C@H](CC(C)C)NC(=O)[C@H](Cc1c[nH]cn1)NC(=O)CNC(=O)[C@@H](NC(=O)[C@H](C)NC(=O)[C@H](Cc1c[nH]c2ccccc12)NC(=O)[C@H](CCC(N)=O)NC(=O)[C@@H](Cc1ccccc1)NC(=O)COCCOCCNC(=O)CCC(C(=O)O)N1CCN(CC(=O)O)CCN(CC(=O)O)CCN(CC(=O)O)CC1)C(C)C)C(N)=O (mixture of isomers) [[^111In]In-DOTAGA-PEG2-RM26, metal not drawn]",% degraded in peripheral mice blood,[6],about 30%
same,tissue uptake at 1 h,in vivo; Blood uptake,0.5 ± 0.3 %ID/g
same,tissue uptake at 4 h,in vivo; Blood uptake,0.07 ± 0.01 %ID/g
same,tissue uptake at 24 h,in vivo; Blood uptake,0.015 ± 0.003 %ID/g
same,tissue uptake at 1 h,in vivo; Bone uptake,0.13 ± 0.08 %ID/g
same,tissue uptake at 4 h,in vivo; Bone uptake,0.07 ± 0.04 %ID/g
same,tissue uptake at 24 h,in vivo; Bone uptake,0.04 ± 0.03 %ID/g
same,tissue uptake at 1 h,in vivo; Kidneys uptake,4.6 ± 0.9 %ID/g
same,tissue uptake at 4 h,in vivo; Kidneys uptake,3.5 ± 0.7 %ID/g
same,tissue uptake at 24 h,in vivo; Kidneys uptake,2 ± 0.5 %ID/g
same,tissue uptake at 1 h,in vivo; Liver uptake,0.5 ± 0.1 %ID/g
same,tissue uptake at 4 h,in vivo; Liver uptake,0.23 ± 0.05 %ID/g
same,tissue uptake at 24 h,in vivo; Liver uptake,0.16 ± 0.02 %ID/g
same,tissue uptake at 1 h,in vivo; Lungs uptake,0.5 ± 0.2 %ID/g
same,tissue uptake at 4 h,in vivo; Lungs uptake,0.11 ± 0.02 %ID/g
same,tissue uptake at 24 h,in vivo; Lungs uptake,0.04 ± 0.01 %ID/g
same,tissue uptake at 1 h,in vivo; Muscle uptake,0.11 ± 0.08 %ID/g
same,tissue uptake at 4 h,in vivo; Muscle uptake,0.04 ± 0.01 %ID/g
same,tissue uptake at 24 h,in vivo; Muscle uptake,0.01 ± 0.01 %ID/g
same,tissue uptake at 1 h,in vivo; Pancreas uptake,1.9 ± 1 %ID/g
same,tissue uptake at 4 h,in vivo; Pancreas uptake,0.18 ± 0.04 %ID/g
same,tissue uptake at 24 h,in vivo; Pancreas uptake,0.03 ± 0.01 %ID/g
same,tissue uptake at 1 h,in vivo; Small intestine uptake,0.8 ± 0.2 %ID/g
same,tissue uptake at 4 h,in vivo; Small intestine uptake,0.13 ± 0.04 %ID/g
same,tissue uptake at 24 h,in vivo; Small intestine uptake,0.05 ± 0.05 %ID/g
same,tissue uptake at 1 h,in vivo; Spleen uptake,0.21 ± 0.06 %ID/g
same,tissue uptake at 4 h,in vivo; Spleen uptake,0.1 ± 0.02 %ID/g
same,tissue uptake at 24 h,in vivo; Spleen uptake,0.1 ± 0.03 %ID/g
same,tissue uptake at 1 h,in vivo; Tumor (PC-3) uptake,6 ± 0.4 %ID/g
same,tissue uptake at 4 h,in vivo; Tumor (PC-3) uptake,3 ± 1 %ID/g
same,tissue uptake at 24 h,in vivo; Tumor (PC-3) uptake,1.2 ± 0.4 %ID/g
